Article PMC10791743, “Selective CK1α degraders exert antiproliferative activity against a broad range of human cancer cell lines” (Nature Communications, 2024)
Values joined by “and” are separate entries in the source; they are usually repeats but may differ in a detail not shown here. Identical values can stand only once.

Legend:
[1] = tested on: panel of 9 human cancer cell lines (HD-MB03, MB004, MB002, MHH-CALL4, MOLM-13, TF-1, HEL, OCI-AML3, AML193); experiment: Molecular glue library screening, CellTiter-Glo cell viability, 72 h; assay type: cell-based; conditions: CTG, dose-response
Method: We screened our molecular glue library (3630 compounds) against a panel of 9 pediatric cancer cell lines to identify molecules displaying cell-selective sensitivities. In addition to the four cell lines we previously described (MB002, MB004, HD-MB03, and MHHCALL-4)[27], we included five additional AML cell lines (MOLM-13, TF-1, HEL, OCI-AML3, and AML193) to cover a broader range of genetic diversity and cancer vulnerabilities. The library screening was performed in high throughput (384-well plates) by incubating the cells with compounds for 72 h and assessing cell viability via CellTiter-Glo (CTG) in a dose–response manner, as reported previously.
The primary screen was performed in 384-well format using the CellTiter Glo (CTG) luminescent cell viability assay (Promega) as previously described. 3630 compounds from the St. Jude proprietary molecular glue library were screened against 9 human cancer cell lines (HD-MB03, MB004, MB002, MHH-CALL4, MOLM-13, TF-1, HEL, OCI-AML3, AML193). Each cell line was cultured in the complete medium recommended by the vendor and seeded in Corning 8804 BC white 384-well assay plates at densities of 1000, 1000, 1500, 7500, 1250, 156, 625, 1250, 1250 cells per well for HD-MB03, MB004, MB002, MHH-CALL4, MOLM-13, TF-1, HEL, OCI-AML, AML193, respectively. After overnight incubation at 37 °C in a humidified 5% CO2 incubator, cells were treated with compounds in dose–response format using a Pintool on a Biomek FX^P Laboratory Automation Workstation (Beckman Coulter). After 72 h of incubation, cell proliferation was assessed using a CellTiter-Glo (CTG) luminescent cell viability assay (Promega) according to the manufacturer’s instructions. Luminescence signal was measured using an EnVision plate reader (PerkinElmer).

[2] = tested on: MOLM-13 cells; experiment: MOLM-13 cell viability assay (CTG, 72 h); assay type: cell-based, human; set-up: key to Cell viability in MOLM-13 cells / cell viability, dose-response replicate values: % viability = 100 − % activity, normalized to controls; conditions: for Cell viability in MOLM-13 cells: Lenalidomide series
Method: The primary screen was performed in 384-well format using the CellTiter Glo (CTG) luminescent cell viability assay (Promega) as previously described. […] After overnight incubation at 37 °C in a humidified 5% CO2 incubator, cells were treated with compounds in dose–response format using a Pintool on a Biomek FX^P Laboratory Automation Workstation (Beckman Coulter). […] Luminescence signal was measured using an EnVision plate reader (PerkinElmer). […]
number per well and incubated overnight at 37 °C in a humidified 5 % CO2 incubator. Compounds were transferred to the assay plate from a dose-response plate using a Labcyte Echo 650 Acoustic Liquid Handler (Beckman Coulter , USA). […]
using Promega’s CellTiter-Glo reagent according to the manufacturer’s recommendation.
Luminescence was measured on the Envision plate reader (PerkinElmer, USA). Raw luminescence relative light unit (RLU) values for each compound at each concentration were normalized to obtain % activity using the following equation (1): 100 × [(mean(negctrl) – compound)/(mean (negctrl) – mean (posctrl))]. The % activity was converted to % viability using the following equation (2):
(100 – % activity), and then pooled from replicate experiments prior to fitting. Here, negctrl and posctrl refer to the negative (DMSO) and positive controls (staurosporine) on each plate. Dose-response curves were fit to the Hill equation using the GraphPad Prism (version 10). […]

With `Nc1cccc2c1CN(C1CCC(=O)NC1=O)C2=O` (centres unmarked) [lenalidomide, reference compound] the “Cell viability across the panel of AL and MB cell lines” value [1] was “inactive”, the “Effect on MOLM-13 cell viability (cytotoxicity)” value ([2]; CTG 72 h) was “did not show appreciable cytotoxicity” and the “Cell viability in MOLM-13 cells” value ([2]; Conc 0.00055545) was 109.633 and 88.9306 and 94.0401. For the same molecule, the “Cell viability in MOLM-13 cells” value ([2]; Conc 0.00166636) was 93.576 and 90.3639 and 96.1559, the “Cell viability in MOLM-13 cells” value ([2]; Conc 0.00499909) was 90.3167 and 93.3429 and 87.1 and the “Cell viability in MOLM-13 cells” value ([2]; Conc 0.0149973) was 104.685 and 79.7406 and 92.7317. For the same molecule, the “Cell viability in MOLM-13 cells” value ([2]; Conc 0.0449918) was 87.2291 and 84.4121 and 81.9827, the “Cell viability in MOLM-13 cells” value ([2]; Conc 0.134975) was 84.7339 and 87.0092 and 84.0481 and the “Cell viability in MOLM-13 cells” value ([2]; Conc 0.404926) was 83.6134 and 73.5361 and 80.3173. For the same molecule, the “Cell viability in MOLM-13 cells” value ([2]; Conc 1.21478) was 75.0522 and 81.9691 and 77.2827 and the “Cell viability in MOLM-13 cells” value ([2]; Conc 3.64433) was 84.7767 and 72.5751 and 71.171.
